In patent US11752165B2, “Basic chemotherapeutic intratumour injection formulation” (US NANO FOOD & DRUG, INC., priority 2020, dated 2023):
Values after ≈ are worked out from the molar mass of the structure shown. “Also recorded” adds a separate entry of the source. Where a name gives a salt, the structure may show the parent alone. Read-outs that look alike come from different tables or passages of the source.

Columns and labels:
[1] = cited from earlier work; for Solubility in water (in words): background statement
[2] = background statement; cited from earlier work
[3] = Solubility in oil, ethanol and other organic liquids; conditions: for Solubility in organic liquids (in words): detailed description; for Solubility in ethanol / Solubility in oil: Table 2, yes/no
[4] = format: physicochemical
[5] = background statement, cited from earlier work
[6] = Stability of the basic (free base) chemical; conditions: detailed description
[7] = Solubility in water; conditions: for Solubility in water (in words): detailed description; for Solubility in H2O: Table 2, yes/no
[8] = test system: mice; conditions: mouse, in vivo, ip; cited from earlier work
[9] = 5 mg/mL aqueous solution; cited from earlier work
[10] = cited from earlier work
[11] = serum, rapid intravenous injection, patients with cancer

Row | Compound | Solubility in water (in words) [1] | Stability of the basic chemical (in words) [2] | Solubility in organic liquids (in words) [3] | Solubility in organic liquids (in words) [5] | Stability of the base form (in words) [6] | Solubility in water (in words) [7] | other results
1 | COc1cccc2c1C(=O)c1c(O)c3c(c(O)c1C2=O)C[C@@](O)(C(C)=O)C[C@@H]3O[C@H]1C[C@H](N)[C@H](O)[C@H](C)O1 [Daunorubicin hydrochloride] |  |  |  |  |  |  | Solubility in water (in words) ([1]; hydrochloride): soluble in water
2 | COc1cccc2c1C(=O)c1c(O)c3c(c(O)c1C2=O)C[C@@](O)(C(=O)CO)C[C@@H]3O[C@H]1C[C@H](N)[C@H](O)[C@H](C)O1 [Doxorubicin base, doxorubicin] | insoluble in water | unstable | slightly soluble alcohols; also recorded: moderately soluble in anhydrous methanol | slightly soluble in an organic liquid |  |  | pH in water ([4]; 10 mg in 5 ml of water): 7.9
3 | COc1cccc2c1C(=O)c1c(O)c3c(c(O)c1C2=O)C[C@@](O)(C(=O)CO)C[C@@H]3O[C@H]1C[C@H](N)[C@@H](O)[C@H](C)O1 [Epirubicin hydrochloride] |  |  |  |  |  |  | Solubility in water (in words) ([1]; hydrochloride): soluble in water
4 | COc1cccc2c1C(=O)c1c(O)c3c(c(O)c1C2=O)C[C@@](O)(C(C)=O)C[C@@H]3O[C@H]1C[C@H](N)[C@H](O)[C@H](C)O1 [Daunorubicin base, daunorubicin] | insoluble in water | unstable | slightly soluble in an organic liquid such as oleic acid, PEG and ethanol | slightly soluble in an organic liquid | not stable in base form | insoluble in water | 
5 | COc1cccc2c1C(=O)c1c(O)c3c(c(O)c1C2=O)C[C@@](O)(C(=O)CO)C[C@@H]3O[C@H]1C[C@H](N)[C@@H](O)[C@H](C)O1 [epirubicin base, epirubicin] | insoluble in water | unstable |  | slightly soluble in an organic liquid |  | insoluble in water | Solubility in water [7]: 0.093 mg per ml
6 | CC[C@]1(O)C[C@H]2CN(CCc3c([nH]c4ccccc34)[C@@](C(=O)OC)(c3cc4c(cc3OC)N(C=O)[C@H]3[C@@](O)(C(=O)OC)[C@H](OC(C)=O)[C@]5(CC)C=CCN6CC[C@]43[C@@H]65)C2)C1 [Vincristine sulfate] | freely soluble in water |  |  |  |  |  | Solubility in H2O ([7]; listed as Vincristine H2SO4): yes; Solubility in ethanol ([3]; listed as Vincristine H2SO4): no; Solubility in oil ([3]; listed as Vincristine H2SO4): no
7 | CC[C@]1(O)C[C@@H]2CN(CCc3c([nH]c4ccccc34)[C@@](C(=O)OC)(c3cc4c(cc3OC)N(C)[C@H]3[C@@](O)(C(N)=O)[C@H](O)[C@]5(CC)C=CCN6CC[C@]43[C@@H]65)C2)C1 [Vindesine] | insoluble in water | unstable | soluble in alcohol, acetone | slightly soluble in an organic liquid | not stable | practically insoluble in water | Solubility in H2O [7]: no; Solubility in ethanol [3]: yes; Solubility in oil [3]: yes
8 | CC[C@]1(O)C[C@H]2CN(CCc3c([nH]c4ccccc34)[C@@](C(=O)OC)(c3cc4c(cc3OC)N(C=O)[C@H]3[C@@](O)(C(=O)OC)[C@H](OC(C)=O)[C@]5(CC)C=CCN6CC[C@]43[C@@H]65)C2)C1 [Vincristine] | practically insoluble in water | unstable |  | soluble in alcohol, acetone, and chloroform |  | not soluble in water | Solubility in water ([1]; 25° C.): 2.27 µg/mL (≈ 2.75 µM); Solubility in water (in words) ([1]; listed as vincristine): insoluble in water; Solubility in H2O [7]: no; LD50 [8]: 5.2 mg/kg; Solubility in ethanol [3]: yes; Solubility in oil [3]: yes; Solubility in organic liquids (in words) ([5]; listed as vincristine): slightly soluble in an organic liquid
9 | O=C1c2c(O)ccc(O)c2C(=O)c2c(NCCNCCO)ccc(NCCNCCO)c21 [Mitoxantrone base, mitoxantrone] | insoluble in water |  | slightly soluble in methanol; also recorded: practically insoluble in acetonitrile chloroform and acetone | slightly soluble in an organic liquid | the basic form is stable | sparingly soluble in water | pH in water ([4]; 25 mg in 10 ml water): 9.42
10 | COc1cccc2c1C(=O)c1c(O)c3c(c(O)c1C2=O)C[C@@](O)(C(=O)CO)C[C@@H]3O[C@H]1C[C@H](N)[C@H](O)[C@H](C)O1 [Doxorubicin Hydrochloride] |  |  |  |  |  |  | Solubility in water (in words) ([1]; hydrochloride): soluble in water; pH of aqueous solution [9]: 4.0-5.5
11 | C=C1C[C@@H]2CC[C@@]34C[C@H]5O[C@H]6[C@@H](O3)[C@H]3O[C@H](CC[C@@H]3O[C@H]6[C@H]5O4)CC(=O)C[C@@H]3[C@@H](OC)[C@@H](C[C@H](O)CN)O[C@H]3C[C@H]3O[C@@H](CC[C@@H]1O2)C[C@@H](C)C3=C [eribulin] | insoluble in water | unstable |  | slightly soluble in an organic liquid |  |  | 
12 | CC[C@]1(O)C[C@@H]2CN(CCc3c([nH]c4ccccc34)[C@@](C(=O)OC)(c3cc4c(cc3OC)N(C)[C@H]3[C@@](O)(C(=O)OC)[C@H](OC(C)=O)[C@]5(CC)C=CCN6CC[C@]43[C@@H]65)C2)C1 [Vinblastine sulphate] | One part is soluble in 10 parts of water |  |  |  |  |  | Solubility in H2O ([7]; listed as Vinblastine H2SO4): yes; Solubility in water (in words) ([7]; listed as Vinblastine sulfate): soluble in water; Solubility in ethanol ([3]; listed as Vinblastine H2SO4): no; Solubility in oil ([3]; listed as Vinblastine H2SO4): no; Crossing of the blood brain barrier (in words) ([10]; following IV administration): crosses the blood brain barrier poorly
13 | CC[C@]1(O)C[C@@H]2CN(CCc3c([nH]c4ccccc34)[C@@](C(=O)OC)(c3cc4c(cc3OC)N(C)[C@H]3[C@@](O)(C(=O)OC)[C@H](OC(C)=O)[C@]5(CC)C=CCN6CC[C@]43[C@@H]65)C2)C1 [Vinblastine] |  |  | soluble in alcohol, acetone, chloroform, ethyl acetate |  | unstable at room temperature | practically insoluble in water | Solubility in water (in words) ([1]; listed as vinblastine): insoluble in water; Solubility in H2O [7]: no; Solubility in water (in words) ([7]; listed as vinblastine base): not soluble in water; Solubility in ethanol [3]: yes; Solubility in oil [3]: yes; Initial half-life [10, 11]: 3.7 min; Middle half-life [10, 11]: 1.6 h; Terminal half-life [10, 11]: 24.8 h; Solubility in organic liquids (in words) ([5]; listed as vinblastine): slightly soluble in an organic liquid
